Measurements from patent US9895346B2, “Applications of substituent benzyloxy group containing ether compounds for preparing antitumor drugs” (Sinochem Corporation, priority 2013, dated 2018).

Columns and labels:
[1] = system: lung cancer cell line A549; assay: In vitro cell inhibition assay (crystal violet), lung cancer A549; format: cell-based, human
Text: (§1) In vitro Cell inhibition assay is as follows:
(§2) The human cancer cell lines used for this assay were bladder cancer J82, T24, prostate cancer LNCap, PC-3, lung cancer A549, H157, H460, H520, colon cancer HCT8, HCT116, RkO, and leukemia HL-60, etc.
(§3) In vitro cell culture technology was selected for the determination of inhibition rate bladder cancer cell lines J82 and T24, prostate cancer cell lines LNCap and PC-3, lung cancer cell lines A549, H157, H460 and H520. 1000 to 3000 cells were inoculated to 24-well plate, followed by addition of 1 mL culture medium well known to researchers in this field to each well, the cells were cultured in 5% incubator for 24 hours at 37° C., then the different concentration compounds and controls were added to each well. It should be noted that the added volume is not more than 0.5% of total volume. After completion of addition, the cells continued being cultured in incubator for one week, the culture medium was removed and washed by cold PBS of 1 mL once, and then fixed for 10 minutes at room temperature with 1% formalin, followed by wash with PBS of 1 mL. After fixation, stain was carried out with 0.1% crystal violet for 30 minutes. 0.1% crystal violet was recycled. The stained cells were washed gently with deionized water, dried at room temperature and kepted. The inhibition rate was calculated according to the foiling equation. The controls are Selumetinib (AZD6244), Gefitinib, Cisplatin. Inhibition rate=number of left cells each treatment/number of left cells of untreated control×100%

[2] = system: lung cancer cell line H460; assay: In vitro cell inhibition assay (crystal violet), lung cancer H460; format: cell-based, human
Text: as §1, §2, §3

colon cancer HCT116 = assay: In vitro cell inhibition assay, colon cancer HCT116; format: cell-based, human; details: Homo sapiens, read-out: Inhibition rate on human cancer cells
Text: as §1, §2

[3] = system: lung cancer cell line H520; assay: In vitro cell inhibition assay (crystal violet), lung cancer H520; format: cell-based, human
Text: as §1, §2, §3

[4] = system: bladder cancer cell line T24; assay: In vitro cell inhibition assay (crystal violet), bladder cancer T24; format: cell-based, human
Text: as §1, §2, §3

colon cancer HCT8 = assay: In vitro cell inhibition assay, colon cancer HCT8; format: cell-based, human; details: Homo sapiens, read-out: Inhibition rate on human cancer cells
Text: as §1, §2

[5] = system: prostate cancer cell line LNCap; assay: In vitro cell inhibition assay (crystal violet), prostate cancer LNCap; format: cell-based, human
Text: as §1, §2, §3

[6] = system: bladder cancer cell line J82; assay: In vitro cell inhibition assay (crystal violet), bladder cancer J82; format: cell-based, human
Text: as §1, §2, §3

[7] = system: lung cancer cell line H157; assay: In vitro cell inhibition assay (crystal violet), lung cancer H157; format: cell-based, human
Text: as §1, §2, §3

colon cancer RkO = assay: In vitro cell inhibition assay, colon cancer RkO; format: cell-based, human; details: Homo sapiens, read-out: Inhibition rate on human cancer cells
Text: as §1, §2

[8] = system: prostate cancer cell line PC-3; assay: In vitro cell inhibition assay (crystal violet), prostate cancer PC-3; format: cell-based, human
Text: as §1, §2, §3

[9] = system: human leukemia HL-60 cells; assay: Proliferation inhibition of human leukemia HL-60 cells, MTT method; format: cell-based; details: 48 h incubation, OPTI-MEM medium
Description: The inhibition rate of human leukemia HL-60 cells was evaluated by regular MTT method. The human leukemia HL-60 cells were picked up from cell incubator, after washed for twice using PBS, cells were digested by 0.25% trypsin, and then add medium to terminate the digestion. After cells were collected using centrifuge and re-suspended, counting cells under inverted microscope and adding medium to make a density which was 5×10^4 cells/mL. After 100 μL aliquots were added to each well of 96-well microtiter plates, cells were cultured in 5% incubator for overnight at 37° C., then the different concentration compounds were added to each well. After incubation for 48 h, MTT solution was added to each well and plates were then incubated for 4 h. The MTT tetrazolium was reduced to formazan by living cells. Then the formazan crystals were dissolved though adding DMSO to each well. The absorbance was read at 570 nm with a microplate reader.

[10] = Homo sapiens, T24, 5.0 μM, read-out: Inhibition rate on human cancer cells
[11] = Homo sapiens, 5.0 μM, read-out: Inhibition rate on human cancer cells
[12] = Homo sapiens, J82, 5.0 μM, read-out: Inhibition rate on human cancer cells
[13] = Homo sapiens, PC-3, 5.0 μM, read-out: Inhibition rate on human cancer cells

Compound: Cn1cnc2c(F)c(Nc3ccc(Br)cc3Cl)c(C(=O)NOCCO)cc21 [Selumetinib, reference compound]
- inhibition at 0.25 µM ([1]; Homo sapiens, A549, 0.25 μM, read-out: Inhibition rate on human cancer cells): 0%
- inhibition at 0.5 µM ([1]; Homo sapiens, A549, 0.5 μM, read-out: Inhibition rate on human cancer cells): 0%
- inhibition at 1 µM ([1]; Homo sapiens, A549, 1.0 μM, read-out: Inhibition rate on human cancer cells): 0%
- inhibition at 2.5 µM ([1]; Homo sapiens, A549, 2.5 μM, read-out: Inhibition rate on human cancer cells): 0%
- inhibition at 5 µM ([1]; Homo sapiens, A549, 5.0 μM, read-out: Inhibition rate on human cancer cells): 10%
- inhibition at 0.25 µM ([2]; Homo sapiens, NCI-H460, H460, 0.25 μM, read-out: Inhibition rate on human cancer cells): 0%
- inhibition at 0.5 µM ([2]; Homo sapiens, NCI-H460, H460, 0.5 μM, read-out: Inhibition rate on human cancer cells): 0%
- inhibition at 1 µM ([2]; Homo sapiens, NCI-H460, H460, 1.0 μM, read-out: Inhibition rate on human cancer cells): 0%
- inhibition at 2.5 µM ([2]; Homo sapiens, NCI-H460, H460, 2.5 μM, read-out: Inhibition rate on human cancer cells): 0%
- inhibition at 5 µM ([2]; Homo sapiens, NCI-H460, H460, 5.0 μM, read-out: Inhibition rate on human cancer cells): 60%
- inhibition at 0.25 µM (colon cancer HCT116; HCT 116, 0.25 μM): 50%
- inhibition at 0.5 µM (colon cancer HCT116; HCT 116, 0.5 μM): 75%
- inhibition at 1 µM (colon cancer HCT116; HCT 116, 1.0 μM): 80%
- inhibition at 2.5 µM (colon cancer HCT116; HCT 116, 2.5 μM): 85%
- inhibition at 5 µM (colon cancer HCT116; HCT 116, 5.0 μM): 90%
- inhibition at 5 µM ([3]; Homo sapiens, NCI-H520, H520, 5.0 μM, read-out: Inhibition rate on human cancer cells): 20%
- inhibition at 5 µM [4, 10]: 70%
- inhibition at 1 µM (colon cancer HCT8; HCT 8, 1.0 μM): 20%
- inhibition at 2.5 µM (colon cancer HCT8; HCT 8, 2.5 μM): 40%
- inhibition at 5 µM (colon cancer HCT8; HCT 8, 5.0 μM): 50%
- inhibition at 5 µM [5, 11]: 20%
- inhibition at 5 µM [6, 12]: 70%
- inhibition at 5 µM ([7]; Homo sapiens, NCI-H157, H157, 5.0 μM, read-out: Inhibition rate on human cancer cells): 20%
- inhibition at 0.25 µM (colon cancer RkO; 0.25 μM): 30%
- inhibition at 0.5 µM (colon cancer RkO; 0.5 μM): 80%
- inhibition at 1 µM (colon cancer RkO; 1.0 μM): 85%
- inhibition at 2.5 µM (colon cancer RkO; 2.5 μM): 90%
- inhibition at 5 µM (colon cancer RkO; 5.0 μM): 95%
- inhibition at 5 µM [8, 13]: 0%

Compound: CO/C=C(/C(=O)OC)c1ccccc1COc1cc(C(F)(F)F)nc(Nc2ccc(Cl)cc2Cl)n1 [compound A, reference compound]
- inhibition at 0.5 µM ([4]; Homo sapiens, T24, 0.5 μM, read-out: Inhibition rate on human cancer cells): 0%
- inhibition at 1 µM ([4]; Homo sapiens, T24, 1.0 μM, read-out: Inhibition rate on human cancer cells): 100%
- inhibition at 2.5 µM ([4]; Homo sapiens, T24, 2.5 μM, read-out: Inhibition rate on human cancer cells): 100%
- inhibition at 5 µM [4, 10]: 100%
- inhibition at 0.5 µM ([5]; Homo sapiens, 0.5 μM, read-out: Inhibition rate on human cancer cells): 0%
- inhibition at 1 µM ([5]; Homo sapiens, 1.0 μM, read-out: Inhibition rate on human cancer cells): 100%
- inhibition at 2.5 µM ([5]; Homo sapiens, 2.5 μM, read-out: Inhibition rate on human cancer cells): 100%
- inhibition at 5 µM [5, 11]: 100%
- inhibition at 0.25 µM ([6]; Homo sapiens, J82, 0.25 μM, read-out: Inhibition rate on human cancer cells): 0%
- inhibition at 0.5 µM ([6]; Homo sapiens, J82, 0.5 μM, read-out: Inhibition rate on human cancer cells): 50%
- inhibition at 1 µM ([6]; Homo sapiens, J82, 1.0 μM, read-out: Inhibition rate on human cancer cells): 95%
- inhibition at 2.5 µM ([6]; Homo sapiens, J82, 2.5 μM, read-out: Inhibition rate on human cancer cells): 100%
- inhibition at 5 µM [6, 12]: 100%
- inhibition at 0.5 µM ([8]; Homo sapiens, PC-3, 0.5 μM, read-out: Inhibition rate on human cancer cells): 0%
- inhibition at 1 µM ([8]; Homo sapiens, PC-3, 1.0 μM, read-out: Inhibition rate on human cancer cells): 85%
- inhibition at 2.5 µM ([8]; Homo sapiens, PC-3, 2.5 μM, read-out: Inhibition rate on human cancer cells): 100%
- inhibition at 5 µM [8, 13]: 100%

Compound: CO/C=C(/C(=O)OC)c1ccccc1COc1cc(-c2ccc(Cl)cc2)nn1C [pyraoxystrobin]
- Inhibition rate on human cancer cells ([4]; T24, 0.25 μM): 100%
- Inhibition rate on human cancer cells ([4]; T24, 0.5 μM): 100%
- Inhibition rate on human cancer cells ([4]; T24, 1.0 μM): 100%
- Inhibition rate on human cancer cells ([4]; T24, 2.5 μM): 100%
- Inhibition rate on human cancer cells ([4]; T24, 5.0 μM): 100%
- Inhibition rate on human cancer cells ([5]; 0.25 μM): 100%
- Inhibition rate on human cancer cells ([5]; 0.5 μM): 100%
- Inhibition rate on human cancer cells ([5]; 1.0 μM): 100%
- Inhibition rate on human cancer cells ([5]; 2.5 μM): 100%
- Inhibition rate on human cancer cells ([5]; 5.0 μM): 100%
- Inhibition rate on human cancer cells ([6]; J82, 0.25 μM): 70%
- Inhibition rate on human cancer cells ([6]; J82, 0.5 μM): 100%
- Inhibition rate on human cancer cells ([6]; J82, 1.0 μM): 100%
- Inhibition rate on human cancer cells ([6]; J82, 2.5 μM): 100%
- Inhibition rate on human cancer cells ([6]; J82, 5.0 μM): 100%
- Inhibition rate on human cancer cells ([8]; PC-3, 0.25 μM): 100%
- Inhibition rate on human cancer cells ([8]; PC-3, 0.5 μM): 100%
- Inhibition rate on human cancer cells ([8]; PC-3, 1.0 μM): 100%
- Inhibition rate on human cancer cells ([8]; PC-3, 2.5 μM): 100%
- Inhibition rate on human cancer cells ([8]; PC-3, 5.0 μM): 100%

Compound: jiaxiangjunzhi [Compound 28-5]
- Inhibition rate on human cancer cells ([1]; A549, 1.0 μM): 80%
- Inhibition rate on human cancer cells ([1]; A549, 2.5 μM): 100%
- Inhibition rate on human cancer cells ([1]; A549, 5.0 μM): 100%
- Proliferation inhibitory effect on human leukemia HL-60 cell (%) ([9]; concentration 1 μM): 31.7%
- Proliferation inhibitory effect on human leukemia HL-60 cell (%) ([9]; concentration 10 μM): 59.3%
- Proliferation inhibitory effect on human leukemia HL-60 cell (%) ([9]; concentration 100 μM): 73.8%
- Inhibition rate on human cancer cells ([2]; H460, 0.5 μM): 100%
- Inhibition rate on human cancer cells ([2]; H460, 1.0 μM): 100%
- Inhibition rate on human cancer cells ([2]; H460, 2.5 μM): 100%
- Inhibition rate on human cancer cells ([2]; H460, 5.0 μM): 100%
- Inhibition rate on human cancer cells ([3]; H520, 0.25 μM): 70%
- Inhibition rate on human cancer cells ([3]; H520, 0.5 μM): 80%
- Inhibition rate on human cancer cells ([3]; H520, 1.0 μM): 90%
- Inhibition rate on human cancer cells ([3]; H520, 2.5 μM): 100%
- Inhibition rate on human cancer cells ([3]; H520, 5.0 μM): 100%
- Inhibition rate on human cancer cells ([4]; T24, 0.25 μM): 100%
- Inhibition rate on human cancer cells ([4]; T24, 0.5 μM): 100%
- Inhibition rate on human cancer cells ([4]; T24, 1.0 μM): 100%
- Inhibition rate on human cancer cells ([4]; T24, 2.5 μM): 100%
- Inhibition rate on human cancer cells ([4]; T24, 5.0 μM): 100%
- Inhibition rate on human cancer cells ([5]; 1.0 μM): 100%
- Inhibition rate on human cancer cells ([5]; 2.5 μM): 100%
- Inhibition rate on human cancer cells ([5]; 5.0 μM): 100%
- Inhibition rate on human cancer cells ([6]; J82, 1.0 μM): 80%
- Inhibition rate on human cancer cells ([6]; J82, 2.5 μM): 100%
- Inhibition rate on human cancer cells ([6]; J82, 5.0 μM): 100%
- Inhibition rate on human cancer cells ([7]; H157, 0.5 μM): 100%
- Inhibition rate on human cancer cells ([7]; H157, 1.0 μM): 100%
- Inhibition rate on human cancer cells ([7]; H157, 2.5 μM): 100%
- Inhibition rate on human cancer cells ([7]; H157, 5.0 μM): 100%
- Inhibition rate on human cancer cells ([8]; PC-3, 1.0 μM): 100%
- Inhibition rate on human cancer cells ([8]; PC-3, 2.5 μM): 100%
- Inhibition rate on human cancer cells ([8]; PC-3, 5.0 μM): 100%
